{
  "source": "patent US20110293511A1",
  "about": "“SPECIFIC BINDING PROTEINS AND USES THEREOF” (priority 2009, published 2011)",
  "tested_on": "A431 xenografts",
  "test": "s.c. xenograft therapy study",
  "type": "in vivo, nude mice",
  "conditions": "preventative model; 0.1 mg mAb806; 400 μg AG1478",
  "method": "Tumor cells (3×10^6) in […] of PBS were inoculated subcutaneously into both flanks of 4-6 week old female nude mice (Animal Research Centre, Western Australia, Australia). […] Treatment was continued for a total of 6 doses, 3 times per week for 2 weeks. In the established model, treatment was started when tumors had reached a mean volume of 65±6.42 mm^3 (U87MG.Δ2-7), 84±9.07 mm3 (U87MG), 73±7.5 mm^3 (U87MG.wtEGFR) or 201±19.09 mm^3 (A431 tumors). Tumor volume in mm^3 was determined using the formula (length×width)/2, where length was the longest axis and width the measurement at right angles to the length (Clark et al. (2000) Therapeutic efficacy of anti-Lewis (y) humanized 3S 193 radioimmunotherapy in a breast cancer model: enhanced activity when combined with Taxol chemotherapy. Clin. Cancer Res. 6, 3621-3628). Data was expressed as mean tumor volume±S.E. for each treatment group. Statistical analysis was performed at given time points using Student's t-test. […]\nTo establish xenografts, mice were injected subcutaneously into the right and left inguinal mammary line with 1×10^6 A431 adenocarcinoma cells or 1×10^6 U87MG.de2-7 glioma cells in 100 μl of PBS. Tumor volume (TV) was calculated by the formula [(length×width)/2] where length was the longest axis and width the measurement at right angles to length. […]",
  "data": [
    {"smiles": "COc1cc2ncnc(Nc3cccc(Cl)c3)c2cc1OC", "note": "[AG1478, 4-(3-Chloroanilino)-6,7-dimethoxyquinazoline, reference compound]", "values": [
      {"measurement": "reduction of tumor volume", "value": "significant reduction of tumor volume"}
    ]}
  ]
}
